Laboratory results from patent US8389545B2, “Quinolone M1 receptor positive allosteric modulators” (Merck, Sharp & Dohme, Corp., priority 2005, dated 2013).

molecular target: T1, acetylcholine muscarinic M1 receptor (Homo sapiens, UniProt P11229); test: muscarinic FLIPR assay: intracellular calcium in CHOnfat/hM1 cells with EC20 acetylcholine; assay type: cell-based; settings: FLIPR Ca2+, 4 min preincubation then EC20 acetylcholine (3 nM final)
T1 construct: expressed in transfected cells; host or cells: CHOnfat cells (CHO; Geneticin selection)
T1 sequence (P11229 1-460): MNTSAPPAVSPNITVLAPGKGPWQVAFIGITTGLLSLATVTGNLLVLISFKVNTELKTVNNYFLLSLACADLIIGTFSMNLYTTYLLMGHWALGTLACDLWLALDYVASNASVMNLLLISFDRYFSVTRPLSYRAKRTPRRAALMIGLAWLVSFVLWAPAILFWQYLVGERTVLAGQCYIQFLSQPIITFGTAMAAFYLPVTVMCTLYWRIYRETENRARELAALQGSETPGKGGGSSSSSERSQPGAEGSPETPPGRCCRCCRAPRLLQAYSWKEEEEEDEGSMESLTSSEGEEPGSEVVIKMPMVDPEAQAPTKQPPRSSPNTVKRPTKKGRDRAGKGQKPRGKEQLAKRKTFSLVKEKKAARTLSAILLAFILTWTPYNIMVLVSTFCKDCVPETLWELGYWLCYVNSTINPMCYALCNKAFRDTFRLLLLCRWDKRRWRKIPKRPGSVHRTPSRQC
Procedure: The assay studies the effect of one or several concentrations of test compounds on basal or acetylcholine-stimulated Ca^2+ levels using FLIPR.
Compounds are prepared and subjected to a preincubation period of 4 min. Thereafter, a single EC20 concentration of acetylcholine is added to each well (3 nM final). The intracellular Ca^2+ level of each sample is measured and compared to an acetylcholine control to determine any modulatory activity.
Cells: CHOnfat/hM1, hM2, hM3 or hM4 cells are plated 24 hr before the assay at a density of 18,000 cells/well (100 μL) in a 384 well plate. CHOnfat/hM1 and CHOnfat/hM3 Growth Medium: 90% DMEM (Hi Glucose); 10% HI FBS; 2 mM L-glutamine; 0.1 mM NEAA; Pen-Strep; and 1 mg/ml Geneticin, are added. For M2Gqi5CHOnfat and M4Gqi5CHOnfat cells, an additional 600 ug/ml hygromycin is added.
Equipment: 384 well plate, 120 μL addition plate; 96-well Whatman 2 ml Uniplate Incubator, 37° C., 5% CO2; Skatron EMBLA-384 Plate Washer; Multimek Pipetting System; Genesis Freedom 200 System; Mosquito System; Temo Nanolitre Pipetting System; and FLIPR^384 Fluorometric Imaging Plate Reader System are used.
Buffers. Assay Buffer: Hanks Balanced Salt Solution, with 20 mM Hepes, 2.5 mM Probenecid (Sigma P-8761) first dissolved in 1N NaOH, 1% Bovine Serum Albumin (Sigma A-9647). Dye Loading Buffer: Assay Buffer plus 1% Fetal Bovine Serum and Fluo-4AM/Pluronic Acid Mixture. 2 mM Fluo-4AM ester stock in DMSO (Molecular Probes F-14202) Concentration of 2 uM in buffer for a final concentration of 1 μM in Assay. 20% Pluronic Acid Solution stock, with concentration of 0.04% in Buffer, 0.02% in Assay.
65 μL of 2 mM Fluo-4AM are mixed with 130 μL of 20% Pluronic Acid. The resulting solution and 650 μL FBS is added to the assay buffer for a total volume of 65 mL. Positive Controls: 4-Br-A23187: 10 mM in DMSO; final concentration 10 μM. Acetylcholine: 10 mM in water, working stock at both 20 uM and 30 uM in assay buffer, final concentration of 10 μM. This is used to check the maximum stimulation of the CHOK1/hM1 cells. 20 uM (2×) acetylcholine is added in the preincubation part of the assay, and the 30 uM (3×) stock is added in the second part. (EC20) Acetylcholine: 10 mM in water, working stock of 9 nM (3×), and final concentration in assay is 3 nM. This is used after the preincubation with test compounds. Addition of the EC20 Acetylcholine to each well with a test compound will ascertain any modulator activity. 24 wells contain 3 nM Acetylcholine alone as a control.
Determining Activity of Putative Compounds: Screening Plate: Compounds are titrated in 96-well plates (columns 2-11), 100% DMSO, started at a concentration of 15 mM (150× stock concentration), and 3-fold serial dilutions using Genesis Freedom200 System. Four 96-well plates are combined into a 384-well plate using Mosquito Nanolitre Pipetting System by transferring 1 ul of serial diluted compounds to each well, and 1 mM acetylcholine (100× stock concentration) were added as a control. Using Temo, 49 μl assay buffer is added to each well of the 384-well plate right before assay.
In a 96-well Whatman 2 ml Uniplate, 9 nM Acetylcholine (3×) is pipetted into wells corresponding to the screening compounds, and into control wells. The 30 uM acetylcholine control (3×) is added into control wells, and the 3× agonist plate is transferred into a 384 well plate. Cells are washed three times with 100 μL of buffer, leaving […] of buffer in each well. Using Multimek, 30 μL of Dye Loading Buffer is added into each well and incubated at 37° C., 5% CO2 for up to one hr.
After 60 min, the cells are washed three times with 100 μL of buffer, leaving 30 μL of buffer in each well. The cell plate, screening plate, and agonist addition plates are placed on the platform in the FLIPR and the door closed. A signal test to check background fluorescence and basal fluorescence signal is performed. Laser intensity is adjusted if necessary. […]

EC50 [µM]	Structure (SMILES)
4.2	COc1cccc(Cn2cc(C(=O)O)c(=O)c3c(F)ccc(F)c32)c1 [Example 2, 5,8-difluoro-1-(3-methoxybenzyl)-4-oxo-1,4-dihydroquinoline-3-carboxylic acid]
1.15	COc1ccc(Cn2cc(C(=O)O)c(=O)c3cccc(F)c32)cc1 [Example 5, 8-fluoro-1-(4-methoxybenzyl)-4-oxo-1,4-dihydroquinoline-3-carboxylic acid]
0.793	COc1ccc(Cn2cc(C(=O)O)c(=O)c3cccc(F)c32)cc1C(F)(F)F [Example 44, 8-fluoro-1-[4-methoxy-3-(trifluoromethyl)benzyl]-4-oxo-1,4-dihydroquinoline-3-carboxylic acid]
0.975	O=C(O)c1cn(Cc2ccc(C(F)(F)F)cc2)c2c(F)cccc2c1=O [Example 52, 8-fluoro-4-oxo-1-[4-(trifluoromethyl)benzyl]-1,4-dihydroquinoline-3-carboxylic acid]
0.389	O=C(O)c1cn(Cc2ccc(O)cc2)c2ccccc2c1=O [Example 71, 1-(4-hydroxybenzyl)-4-oxo-1,4-dihydroquinoline-3-carboxylic acid]
0.614	O=C(O)c1cn(Cc2c(F)cccc2F)c2c(F)ccc(F)c2c1=O [Example 4, 1-(2,6-difluorobenzyl)-5,8-difluoro-4-oxo-1,4-dihydroquinoline-3-carboxylic acid]
